Where “and” joins values, the source holds several entries; their conditions need not be identical. Equal entries are not always repeated.
Test system: HEK293 cells
Test: Endogenous ceramide, HexCer and SM levels in cells treated 24 h, targeted LC-MS/MS
Format: cell-based
Conditions: HEK293 cells, 24 h
Method: Lipids were then extracted using MTBE/methanol/water as described above.
HEK293 cell culture experiment: Levels of each lipid in P053-treated HEK293 cells were normalised to the mean of the vehicle control group, and each concentration was compared to the control using ANOVA with Dunnett’s post-test. P values were adjusted for multiple comparisons in GraphPad PRISM.
Supplementary Figure 1. Ceramide, SM, and HexCer levels in HEK293 cells treated with
P053. Absolute lipid levels were determined by targeted LC-MS/MS, relative to external
standard curves. Results are mean ± SEM (n = 4) from one of two identical experiments.
Statistically significant results, based on two independent experiments, are as indicated in
Figure 2b-d. Raw data for these figures is provided in Supplementary Data File 1.

C[C@@](N)(CO)CCc1ccc(OCc2ccc(Cl)c(Cl)c2)cc1 [P053, (S)-2-amino-4-(4-(3,4-dichlorobenzyloxy)phenyl)-2-methylbutan-1-ol]
24:1 SM level (P053 10 nM): 96.7947 percentage of the vehicle control group and 98.2864 percentage of the vehicle control group and 81.9082 percentage of the vehicle control group and 117.227 percentage of the vehicle control group and 113.319 percentage of the vehicle control group and 103.033 percentage of the vehicle control group and 103.816 percentage of the vehicle control group and 97.9548 percentage of the vehicle control group | 14:0 SM level (P053 30 nM): 116.988 percentage of the vehicle control group and 111.4 percentage of the vehicle control group and 100.814 percentage of the vehicle control group and 94.1513 percentage of the vehicle control group and 120.651 percentage of the vehicle control group and 105.592 percentage of the vehicle control group and 111.904 percentage of the vehicle control group and 100.551 percentage of the vehicle control group | 16:0 Cer level (P053 30 nM): 114.03 percentage of the vehicle control group and 105.56 percentage of the vehicle control group and 86.7073 percentage of the vehicle control group and 95.6011 percentage of the vehicle control group and 106.761 percentage of the vehicle control group and 98.8726 percentage of the vehicle control group and 108.159 percentage of the vehicle control group and 97.2516 percentage of the vehicle control group | 16:0 HexCer level (P053 30 nM): 79.9911 percentage of the vehicle control group and 81.3101 percentage of the vehicle control group and 74.3038 percentage of the vehicle control group and 88.8289 percentage of the vehicle control group and 99.9863 percentage of the vehicle control group and 95.9283 percentage of the vehicle control group and 102.652 percentage of the vehicle control group and 109.256 percentage of the vehicle control group | 16:0 SM level (P053 30 nM): 101.805 percentage of the vehicle control group and 101.307 percentage of the vehicle control group and 94.9476 percentage of the vehicle control group and 93.9555 percentage of the vehicle control group and 110.566 percentage of the vehicle control group and 97.2802 percentage of the vehicle control group and 102.981 percentage of the vehicle control group and 97.8958 percentage of the vehicle control group | 16:1 SM level (P053 30 nM): 104.561 percentage of the vehicle control group and 101.096 percentage of the vehicle control group and 98.3763 percentage of the vehicle control group and 109.464 percentage of the vehicle control group and 104.292 percentage of the vehicle control group and 104.01 percentage of the vehicle control group and 101.515 percentage of the vehicle control group | 18:0 Cer level (P053 30 nM): 72.2013 percentage of the vehicle control group and 69.2543 percentage of the vehicle control group and 56.626 percentage of the vehicle control group and 64.3691 percentage of the vehicle control group and 82.5432 percentage of the vehicle control group and 84.0607 percentage of the vehicle control group and 83.9582 percentage of the vehicle control group and 71.3957 percentage of the vehicle control group | 18:0 HexCer level (P053 30 nM): 55.7883 percentage of the vehicle control group and 64.0009 percentage of the vehicle control group and 45.6733 percentage of the vehicle control group and 59.2017 percentage of the vehicle control group and 57.5393 percentage of the vehicle control group and 74.8051 percentage of the vehicle control group and 77.6074 percentage of the vehicle control group | 18:0 SM level (P053 30 nM): 73.8483 percentage of the vehicle control group and 78.6872 percentage of the vehicle control group and 83.1913 percentage of the vehicle control group and 75.9206 percentage of the vehicle control group and 97.6949 percentage of the vehicle control group and 87.2321 percentage of the vehicle control group and 89.1916 percentage of the vehicle control group and 74.9956 percentage of the vehicle control group | 18:1 SM level (P053 30 nM): 87.9585 percentage of the vehicle control group and 73.1683 percentage of the vehicle control group and 79.2449 percentage of the vehicle control group and 71.4358 percentage of the vehicle control group and 96.5941 percentage of the vehicle control group and 87.3865 percentage of the vehicle control group and 81.7473 percentage of the vehicle control group and 78.1368 percentage of the vehicle control group | 20:0 Cer level (P053 30 nM): 62.7306 percentage of the vehicle control group and 109.856 percentage of the vehicle control group and 118.09 percentage of the vehicle control group and 96.2985 percentage of the vehicle control group and 100.9 percentage of the vehicle control group and 105.057 percentage of the vehicle control group and 91.6087 percentage of the vehicle control group | 22:0 Cer level (P053 30 nM): 116.044 percentage of the vehicle control group and 99.7524 percentage of the vehicle control group and 91.9349 percentage of the vehicle control group and 88.0267 percentage of the vehicle control group and 116.852 percentage of the vehicle control group and 103.772 percentage of the vehicle control group and 120.038 percentage of the vehicle control group and 118.899 percentage of the vehicle control group | 22:0 HexCer level (P053 30 nM): 90.0465 percentage of the vehicle control group and 79.6776 percentage of the vehicle control group and 76.0982 percentage of the vehicle control group and 95.044 percentage of the vehicle control group and 107.866 percentage of the vehicle control group and 100.167 percentage of the vehicle control group and 123.322 percentage of the vehicle control group and 116.268 percentage of the vehicle control group | 22:0 SM level (P053 30 nM): 128.14 percentage of the vehicle control group and 90.1111 percentage of the vehicle control group and 110.345 percentage of the vehicle control group and 114.556 percentage of the vehicle control group and 123.558 percentage of the vehicle control group and 116.784 percentage of the vehicle control group and 129.764 percentage of the vehicle control group and 100.326 percentage of the vehicle control group | 22:1 SM level (P053 30 nM): 99.3902 percentage of the vehicle control group and 113.946 percentage of the vehicle control group and 108.27 percentage of the vehicle control group and 113.134 percentage of the vehicle control group and 107.671 percentage of the vehicle control group and 100.443 percentage of the vehicle control group and 99.5068 percentage of the vehicle control group and 95.4079 percentage of the vehicle control group | 24:0 HexCer level (P053 30 nM): 96.4804 percentage of the vehicle control group and 86.7028 percentage of the vehicle control group and 84.7209 percentage of the vehicle control group and 91.5325 percentage of the vehicle control group and 104.127 percentage of the vehicle control group and 98.7325 percentage of the vehicle control group and 129.497 percentage of the vehicle control group and 115.717 percentage of the vehicle control group | 24:0 SM level (P053 30 nM): 114.636 percentage of the vehicle control group and 105.214 percentage of the vehicle control group and 97.3725 percentage of the vehicle control group and 90.2877 percentage of the vehicle control group and 117.867 percentage of the vehicle control group and 114.443 percentage of the vehicle control group and 132.815 percentage of the vehicle control group and 128.722 percentage of the vehicle control group | 24:1 Cer level (P053 30 nM): 117.491 percentage of the vehicle control group and 102.844 percentage of the vehicle control group and 87.9247 percentage of the vehicle control group and 98.6487 percentage of the vehicle control group and 120.911 percentage of the vehicle control group and 109.977 percentage of the vehicle control group and 130.805 percentage of the vehicle control group and 124.062 percentage of the vehicle control group | 24:1 HexCer level (P053 30 nM): 93.843 percentage of the vehicle control group and 87.9781 percentage of the vehicle control group and 89.6469 percentage of the vehicle control group and 99.7739 percentage of the vehicle control group and 102.587 percentage of the vehicle control group and 104.249 percentage of the vehicle control group and 119.244 percentage of the vehicle control group and 107.968 percentage of the vehicle control group | 24:1 SM level (P053 30 nM): 102.826 percentage of the vehicle control group and 100.942 percentage of the vehicle control group and 98.397 percentage of the vehicle control group and 94.2567 percentage of the vehicle control group and 116.83 percentage of the vehicle control group and 103.091 percentage of the vehicle control group and 120.071 percentage of the vehicle control group and 112.514 percentage of the vehicle control group | 14:0 SM level (P053 100 nM): 112.517 percentage of the vehicle control group and 90.2734 percentage of the vehicle control group and 104.152 percentage of the vehicle control group and 104.709 percentage of the vehicle control group and 117.225 percentage of the vehicle control group and 115.891 percentage of the vehicle control group and 108.424 percentage of the vehicle control group and 118.856 percentage of the vehicle control group

Source: publication PMC6104039 (Nature Communications, 2018)
